Like-named read-outs stand apart in the source and are kept apart here.
What was measured:
VJ-300 cells [1] = assay: In vitro suppression of proliferation of multi-drug resistant VJ-300 cells by concomitant use with doxorubicin; format: cell-based, Human; conditions: test compound 1 μg/ml with ADM, ADM alone in KB = 1
Protocol: (§1) In vitro test of action suppressing proliferation of cancer cells by concomitant use with doxorubicin
(§2) As the incubation solutions, use was made of 10% fetal calf serum (made by Flow Laboratories) and Eagle MEM medium (made by Nissui Seiyakusha) containing 0.292 mg/ml of L-glutamine (made by Flow Laboratories). The tests of the action in overcoming resistance to anti-cancer drugs or action reinforcing the effect of the anti-cancer drug through concomitant use of the anti-cancer drug doxorubicin (adriamycin, ADM) and the test compound were performed as follows: The test cells were suspended in incubation solutions and adjusted to a cell density of about 200 cells/ml. The cell suspensions were injected in 2 ml amounts into petri dishes and were incubated in a CO2 gas incubator (5% CO2, 95% air) at 37° C. for 24 hours. Next, 5 to 10 μl of a predetermined concentration of the aqueous ADM solution and a predetermined concentration of a DMSO solution of the test compound were added, then the incubation was continued for a further 7 days. After the end of the incubation, the result was immobilized by methanol, Giemsa stained and measured for the number of colonies per dish. The results were used to prepare a volume-reaction curve.

KB cells [2] = assay: In vitro suppression of proliferation of KB cancer cells by concomitant use with doxorubicin; format: cell-based, Human; conditions: test compound 1 μg/ml with ADM, ADM alone in KB = 1
Protocol: as §1, §2

Acute toxicity test = conditions: mouse, in vivo, ip; mice, intraperitoneal, 7 days observation
Protocol: Animals used: ICR male mice (Charles River Japan) 7-8 weeks old, three mice per group.
Test method: The compound of the present invention was suspended in 0.5% sodium carboxymethylcellulose (CMC-Na) containing 0.1% Tween 80. It was administered to the mice intraperitoneally from 2000 mg/kg to 125 mg/kg by a ratio of 1/2 and from 125 mg/kg to 31.3 mg/kg by a ratio of 1/√2 in groups of three mice until no more deaths were observed. The survival of the animals was observed up until 7 days after administration and the LD50 was calculated by the Van Der Wearder area method.

[3] = test system: KCl contraction in rat arteries (thoracic aorta); assay: Action easing KCl contraction in rat arteries (thoracic aorta ring); conditions: read-out: IC50 value (50% inhibitory concentration of hyperpotassium contraction), Test Example 7, Table 7, 37° C.
Protocol: Action easing KCl contraction in rat arteries
The specimen was stabilized for approximately 60 minutes, then a potassium chloride solution was added to the Magnus tube to give a final concentration of […]. The positive control compound or the compound of the present invention was cumulatively added from 1×10^-10 M to 1×10^-4 M when the contraction reaction occurring at that time reached equilibrium. The contraction force was recorded by an FD-pickup (made by Nihon Kodensha) via a polygraph (made by Nihon Kodensha).

TxA2 synthesis = TxA2 synthesis inhibiting action test (human blood platelet microsomes); format: biochemical; conditions: prostaglandin H2
Protocol: TxA2 Synthesis Inhibiting Action Test
One ml of a buffer (20 mM Tris-HCl buffer, 1 mM EDTA, pH 7.5) containing human blood platelet microsomes (50 μg protein/ml) and the test compound (final concentration 10^-7 M) was agitated, then incubated at 0° C. for 30 minutes. To this was added prostaglandin H2 (100 ng/2 μl). This was incubated at 23° C. for 3 minutes to cause a reaction. Next, 1M hydrochloric acid was added to make the solution acidic and stop the reaction, then this was neutralized by 1M Tris-Base and centrifuged at 3000 rpm for 20 minutes. The amount of the TxB2 in the supernatant was measured by the EIA method (Cayman Co. kit).

[4] = test system: VCR resistant murine leukemia (P388/VCR) cells; assay: In vivo effect for overcoming resistance to vincristine in VCR resistant murine leukemia (P388/VCR) bearing mice; set-up: species or system CDF1 male mice
From the text: In vivo test of action suppressing proliferation of cancer cells by concomitant use with anti-cancer drug
The number of survival days were found and the life prolonging rate (T/C) with respect to the controls was found. The effect in overcoming resistance to an anti-cancer drug (T/V) was found by the following formula.
Effect for overcoming resistance to an anti-cancer drug (T/V) %
=[Life prolonging rate (T/C) in case of concomitant use of VCR and the compound of the present invention]/[Life prolonging rate (T/C) in case of VCR alone]×100
Using Compound 18 to Compound 22 and Compound 32, the same procedure was followed as in Test Example 5 to find the effect for overcoming resistance to an anti-cancer drug in vincristine (VCR) resistant murine leukemia cell bearing mice.

[5] = test system: KCl contraction in rat arteries (thoracic aorta); assay: Action easing KCl contraction in rat arteries (thoracic aorta ring); conditions: read-out: IC50 value (50% inhibitory concentration of hypercalcemic contraction), Test Example 8, Table 8
multi-drug resistance = conditions: Cancer Res., 41, 1967-1972 (1981); Cancer and Chemotherapy, vol. 11, pp. 750-759 (1984); cited from earlier work
KB cells [6] = assay: In vitro suppression of proliferation of KB cancer cells by concomitant use with vincristine; format: cell-based, Human; conditions: test compound 1 μg/ml with VCR, VCR alone in KB = 1
Protocol: as §2
In vitro test of action suppressing proliferation of cancer cells by concomitant use with vincristine […]

VJ-300 cells [7] = assay: In vitro suppression of proliferation of multi-drug resistant VJ-300 cells by concomitant use with vincristine; format: cell-based, Human; conditions: test compound 1 μg/ml with VCR, VCR alone in KB = 1
[8] = Test Example 5, Table 5, T/C with VCR + compound over T/C with VCR alone ×100
[9] = Test Example 5, Table 5, VCR 100 μg/kg i.p. 5 days with compound 100 mg/kg (verapamil 60, nicardipine 75 mg/kg)
[10] = Test Example 6, Table 6, same procedure as Test Example 5

Row | SMILES | LD50 at 168 h (Acute toxicity test) [mg/kg] | TxA2 synthesis inhibiting action Rate of suppression at 10^-7 mol (%) (TxA2 synthesis) | Effect for overcoming resistance T/V (%) [4, 8] [%] | Life prolonging rate T/C (%) [4, 9] [%] | Mean days of survival [4, 9] [days] | IC50 [5] [µM] | also measured
1 | COc1cccc2c1C(=O)c1c(O)c3c(c(O)c1C2=O)C[C@@](O)(C(=O)CO)C[C@@H]3O[C@H]1C[C@H](N)[C@H](O)[C@H](C)O1 [ADM, doxorubicin] | – | – | – | – | – | – | Resistance with ADM, VJ-300 (LD50 concentration of ADM relative to ADM alone in KB cells) (VJ-300 cells [1]): 26.4; Resistance with ADM, KB (LD50 concentration of ADM relative to ADM alone in KB cells) (KB cells [2]): 1
2 | CC1=C(C(=O)OCCCc2cccnc2)C(C(C)C)C(C(=O)OCCCc2cccnc2)=C(C)N1 [Compound 1, 2,6-dimethyl-4-isopropyl-1,4-dihydropyridine-3,5-dicarboxylic acid bis[3-(3-pyridyl)propyl]ester] | 750 | 90.7 | – | – | – | – | IC50 [3]: > 30 µM
3 | CCCC(C)C1C(C(=O)OCCCc2cccnc2)=C(C)NC(C)=C1C(=O)OCCCc1cccnc1 (stereo not drawn) [Compound 3, 2,6-dimethyl-4-(1-methylbutyl)-1,4-dihydropyridine-3,5-dicarboxylic acid bis[3-(3-pyridyl)propyl]ester] | 188 | 82.4 | 161 | 172 | 17.2 | – | –
4 | CC1=C(C(=O)OCCCc2cccnc2)C(Cc2ccccc2)C(C(=O)OCCCc2cccnc2)=C(C)N1 [Compound 5, 2,6-dimethyl-4-benzyl-1,4-dihydropyridine-3,5-dicarboxylic acid bis[3-(3-pyridyl)propyl]ester] | 1120 | – | – | – | – | 42 | –
5 | CC1=C(C(=O)OCCCc2cccnc2)C(C(c2ccccc2)c2ccccc2)C(C(=O)OCCCc2cccnc2)=C(C)N1 [Compound 6, 2,6-dimethyl-4-benzhydryl-1,4-dihydropyridine-3,5-dicarboxylic acid bis[3-(3-pyridyl)propyl]ester] | 2000 | – | – | – | – | – | IC50 [3]: 25.5 µM
6 | COC(=O)C1=C(C)NC(C)=C(C(=O)OCCCc2cccnc2)C1C(C)C (stereo not drawn) [Compound 13, 2,6-dimethyl-4-isopropyl-1,4-dihydropyridine-3,5-dicarboxylic acid 3-methylester 5-[3-(3-pyridyl)propyl]ester] | – | 71.4 | – | – | – | 5.7 | –
7 | CC1=C(C(=O)OCCCc2cccnc2)C(C(C)C)C(C(=O)OCc2ccncc2)=C(C)N1 (stereo not drawn) [Compound 15, 2,6-dimethyl-4-isopropyl-1,4-dihydropyridine-3,5-dicarboxylic acid 3-(4-pyridylmethyl) ester, 5-[3-(3-pyridyl)propyl]ester] | – | 83.5 | 134 | 144 | 14.4 | 4.2 | –
8 | CCCCCCCCC1C(C(=O)OCCCc2cccnc2)=C(C)NC(C)=C1C(=O)OCCCc1cccnc1 [Compound 16, 2,6-dimethyl-4-n-octyl-1,4-dihydropyridine-3,5-dicarboxylic acid bis[3-(3-pyridyl)propyl]ester] | > 2000 | – | – | – | – | 62 | –
9 | CCCCCC1C(C(=O)OCCCc2cccnc2)=C(C)NC(C)=C1C(=O)OCCCc1cccnc1 [Compound 18, 2,6-dimethyl-4-n-pentyl-1,4-dihydropyridine-3,5-dicarboxylic acid bis[3-(3-pyridyl)propyl]ester] | > 2000 | – | – | – | – | 4.6 | Effect for overcoming resistance T/V (%) [4, 10]: 140%; Life prolonging rate T/C (%) [4, 10]: 143%; Mean days of survival [4, 10]: 15.3 days
10 | COC(=O)C1=C(C)NC(C)=C(C(=O)OCCN(C)Cc2ccccc2)C1c1cccc([N+](=O)[O-])c1 (stereo not drawn) [Nicardipine, nicardipine, reference compound] | – | – | 123 | 132 | 13.2 | 0.15 | overcoming multi-drug resistance by concomitant administration with an anti-cancer drug (multi-drug resistance): effective; IC50 [3]: 0.53 µM
11 | CC[C@]1(O)C[C@H]2CN(CCc3c([nH]c4ccccc34)[C@@](C(=O)OC)(c3cc4c(cc3OC)N(C=O)[C@H]3[C@@](O)(C(=O)OC)[C@H](OC(C)=O)[C@]5(CC)C=CCN6CC[C@]43[C@@H]65)C2)C1 [VCR, vincristine, reference compound] | – | – | 100 | 107 | 10.7 | – | Effect for overcoming resistance T/V (%) [4, 10]: 100%; Life prolonging rate T/C (%) [4, 10]: 102%; Mean days of survival [4, 10]: 10.9 days; Resistance with VCR, KB (LD50 concentration of VCR relative to VCR alone in KB cells) (KB cells [6]): 1; Resistance with VCR, VJ-300 (LD50 concentration of VCR relative to VCR alone in KB cells) (VJ-300 cells [7]): 603.4
